{
  "source": "patent US10793531B2",
  "about": "“Triazole derivatives and their use as PDE4 activators” (MIRONID LIMITED, priority 2015, dated 2020)",
  "key": {"full-length human PDE4A4": {"molecular_target": "T1, full-length human PDE4A4 (Homo sapiens, UniProt P27815)", "T1 construct": "stably expressed the full-length human PDE4D5, PDE4A4 and PDE4B1 long isoforms; made in house; cytosol fraction of the lysate", "T1 sequence (P27815 whole entry, canonical isoform)": "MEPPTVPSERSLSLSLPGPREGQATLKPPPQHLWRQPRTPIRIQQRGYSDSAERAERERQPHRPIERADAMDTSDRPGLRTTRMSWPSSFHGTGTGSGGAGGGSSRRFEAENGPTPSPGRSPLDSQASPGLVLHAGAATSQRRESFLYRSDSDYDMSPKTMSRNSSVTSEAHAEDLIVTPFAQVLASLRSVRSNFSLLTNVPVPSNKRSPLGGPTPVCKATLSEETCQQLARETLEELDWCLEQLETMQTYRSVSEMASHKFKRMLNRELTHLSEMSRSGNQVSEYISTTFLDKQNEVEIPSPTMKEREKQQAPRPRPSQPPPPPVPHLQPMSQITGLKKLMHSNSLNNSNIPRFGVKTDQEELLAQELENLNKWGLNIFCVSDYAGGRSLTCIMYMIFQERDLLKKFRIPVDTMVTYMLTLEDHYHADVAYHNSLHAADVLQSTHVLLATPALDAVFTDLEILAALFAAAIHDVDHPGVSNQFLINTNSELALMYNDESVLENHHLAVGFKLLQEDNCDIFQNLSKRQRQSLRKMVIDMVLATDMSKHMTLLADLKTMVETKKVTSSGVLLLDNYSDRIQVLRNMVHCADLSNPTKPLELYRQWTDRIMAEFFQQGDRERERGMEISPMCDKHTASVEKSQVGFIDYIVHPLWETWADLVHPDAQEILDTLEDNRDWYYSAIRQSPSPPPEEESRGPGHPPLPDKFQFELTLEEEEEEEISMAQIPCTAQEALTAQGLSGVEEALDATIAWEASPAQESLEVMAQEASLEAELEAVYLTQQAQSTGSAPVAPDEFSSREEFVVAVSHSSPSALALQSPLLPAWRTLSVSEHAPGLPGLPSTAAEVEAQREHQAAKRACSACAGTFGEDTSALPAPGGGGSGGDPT", "assay": "PDE4 radio-assay, PDE4A4 long form activation (Experiment 1)", "format": "biochemical", "conditions": "n ≥ 2", "experimental": "One suitable method of detecting whether or not a compound is capable of serving as an activator of a PDE4 long form is using a two-step radio-assay procedure described in Experiment 1. In summary, the method involves incubating a PDE4 long form with a test small molecule activator, together with [^3H]-labelled cAMP to assess alterations in the breakdown of cAMP to the 5′-adenosine monophosphate (5′-AMP) product. A sample of the reaction mixture from such an incubation is subsequently treated with snake venom 5′-nucleotidase to allow conversion of the nucleotide [^3H]-labelled 5′-AMP to the uncharged nucleoside [^3H]-labelled adenosine, which can be separated and quantified to assess PDE4 activity and the effect of the test compound (Thompson, W. J. and Appleman, M. M. Biochemistry 10: 311-316, 1971, with some modifications as described in: Marchmont, R. J. and Houslay, M. D. Biochem J. 187: 381-92, 1980).\nHEK 293 cells were transfected with pDEST™ PDE4 expression vectors using Lipofectamine LTX/Plus reagent (Invitrogen) as outlined by the manufacturer and clonal isolates expanded to obtain cell lines that stably expressed the full-length human PDE4D5, PDE4A4 and PDE4B1 long isoforms and the full length human PDE4B2 short isoform. These were called the HEK-PDE4D5, HEK-PDE4A4, HEK-PDE4B1 and HEK-PDE4B2 cell lines, respectively.\nHEK-PDE4D5 cells were seeded out in 100 mm plates and incubated at 37° C. in an atmosphere of 5% CO2, 95% air. Cell lysates were prepared using KHEM buffer [50 mM KCl, 10 mM EGTA, 50 mM HEPES (pH 7.2), 1.92 mM MgCl2].\nTo prepare the cell lysates, the 100 mm plates containing the cells were placed on ice and washed with ice-cold PBS (phosphate buffered saline, pH 7.4). KHEM buffer (500 μl) was added to the cells. Cells were then scraped off the plate and triturated using a needle (BD Microlance™ 0.8, 40 mm). The lysed cells were then centrifuged at 2000 rpm for 10 minutes to remove cell debris and the supernatant (cell lysate containing recombinant PDE4D5) was transferred to a fresh tube and kept on ice.\nThe cell lysate containing recombinant PDE4D5 was transferred into a centrifuge tube and placed into an ultracentrifuge (BECKMAN COULTER) and spun at high speed (100,000 g) for 30 minutes at 4° C. The cytosol fraction was then collected and its protein amount determined using a BCA protein assay.\nPDE assays were performed using a final concentration of 10 mM Tris/5 mM MgCl2 and 1 μM [3H]-cAMP (Perkin Elmer) plus PDE4D5 cell lysate cytosol fraction, containing over-expressed PDE4D5, with and without test compound. Incubations were performed at 30° C. for 5 minutes. The samples were then placed in a boiling water bath for 2 minutes to denature the PDE enzyme, and returned to ice. Samples were allowed to cool for 1.0 min after which snake venom 5′-nucleotidase (25 μl, 1 mg/ml; Sigma) was added. The tubes were vortexed and incubated in a water bath at 30° C. for 10 minutes, to attain conversion of [3H]-5′-AMP to [3H]-adenosine, and then placed on ice. Dowex ion exchange resin (Sigma) prepared as a 1:1 Dowex:water stock was thoroughly re-suspended and diluted 2:1 with ethanol. The resulting Dowex suspension (0.4 ml) was added to each tube. Tubes were vortexed to mix and then incubated on ice for at least 15 minutes before a final vortex. […] Tubes were vortexed thoroughly to mix and the recovered [3H]-adenosine was quantified by measuring counts over 1 minute in a scintillation counter."}, "HEK 293 cells": {"tested_on": "HEK 293 cells", "assay": "Reduction of intracellular cAMP levels in forskolin stimulated HEK 293 cells (Experiment 2)", "format": "cell-based, human", "conditions": "10 μM compound for 10 min prior to forskolin (10 μM) for 2 min; FIG. 5", "experimental": "(§1) HEK 293 and MDCK cells (Public Health England, Cell Culture Collections) were maintained in DMEM supplemented with 10% (v/v) fetal bovine serum (Seralab), 2 mM L-glutamine, 1,000 U penicillin and 1,000 μg streptomycin (Life Technologies); termed complete media. Clonal HEK 293 cell lines were maintained in complete media supplemented with 0.6 mg/mL G418 (Enzo Life Sciences).\n(§2) HEK 293 or MDCK cells were seeded at 100,000 cells per well, and left to adhere overnight. The cells were then treated with the compound indicated (10 μM) for 10 minutes, prior to stimulation with forskolin (10 μM, Sigma) for 2 minutes. Media was aspirated, and hydrochloric acid (0.1M) was added to lyse the cells. The cAMP assay (Enzo Life Sciences) was performed according to the manufacturers instructions."}, "MDCK cells": {"tested_on": "MDCK cells", "assay": "Reduction of intracellular cAMP levels in forskolin stimulated MDCK cells (Experiment 2)", "format": "cell-based, canine", "conditions": "10 μM compound for 10 min prior to forskolin (10 μM) for 2 min; FIG. 6", "experimental": "as §1, §2"}, "[1]": {"tested_on": "androgen-sensitive (AS) LNCaP human prostate cancer cells", "assay": "Xcelligence proliferation assay, androgen-sensitive LNCaP cells (Experiment 5)", "format": "cell-based", "conditions": "normalised cell index at 72 hours; FIG. 9", "experimental": "(§3) In this study, the potential utility of PDE4 long form activators in the treatment of prostate cancer was studied using the LNCaP human prostate cancer cell line. The experiments were carried out according to the method described by Henderson et al. (Henderson, D. J. P., Byrne, A., Dulla, K., Jenster, G., Hoffmann, R., Baillie, G. S., Houslay, M. D. Br. J. Cancer 110: 1278-1287, 2014).\n(§4) Androgen-sensitive (AS) LNCaP cells were maintained in RPMI1640 supplemented with 10% FBS (Seralabs), 2 mM L-glutamine and 1,000 U penicillin-streptomycin. LNCaP androgen-insensitive (AI) cells were generated in-house by culturing the LNCaP-AS cells in RPMI1640 supplemented with 10% charcoal stripped FBS, 2 mM L-glutamine and 1,000 U penicillin-streptomycin for a minimum of four weeks. All tissue culture reagents were, from Life Technologies.\n(§5) Cell proliferation is measured as a function of changing electrical impedance. Values are represented by cell index number, a dimensionless unit of measurement representing the cell status, which increases as cells adhere to 96-well electrode plates and divide. […]\n(§6) Cell indices were measured every 10 minutes for up to 100 hours, analysed using RICA software and normalised to the cell index of vehicle-treated cells (n=3)."}, "[2]": {"tested_on": "androgen-insensitive (AI) LNCaP human prostate cancer cells", "assay": "Xcelligence proliferation assay, androgen-insensitive LNCaP cells (Experiment 5)", "format": "cell-based", "conditions": "normalised cell index at 72 hours; FIG. 10", "experimental": "as §3, §4, §5, §6"}},
  "data": [
    {"smiles": "CCc1nc(-c2ccc(Cl)c(F)c2)nn1CC(=O)NCc1cccc(F)c1", "note": "[Example A, N-(3-Fluorobenzyl)-2-[3-(4-chloro-3-fluorophenyl)-5-ethyl-1H-1,2,4-triazol-1-yl]acetamide]", "values": [
      {"measurement": "PDE4A4 activity (mean % increase in counts over basal activity without added compound)", "setting": "full-length human PDE4A4; 1 μM compound", "result": 1.1, "unit": "%"},
      {"measurement": "PDE4A4 activity (mean % increase in counts over basal activity without added compound)", "setting": "full-length human PDE4A4; 3 μM compound", "result": 2.7, "unit": "%"},
      {"measurement": "PDE4A4 activity (mean % increase in counts over basal activity without added compound)", "setting": "full-length human PDE4A4; 10 μM compound", "result": 10.4, "unit": "%"},
      {"measurement": "PDE4A4 activity (mean % increase in counts over basal activity without added compound)", "setting": "full-length human PDE4A4; 30 μM compound", "result": 38.5, "unit": "%"},
      {"measurement": "PDE4A4 activity (mean % increase in counts over basal activity without added compound)", "setting": "full-length human PDE4A4; 50 μM compound", "result": 65.4, "unit": "%"},
      {"measurement": "intracellular cAMP levels in HEK293 cells (in words)", "setting": "HEK 293 cells", "result": "reduction in intracellular cAMP levels"},
      {"measurement": "intracellular cAMP levels in MDCK cells (in words)", "setting": "MDCK cells", "result": "reduction in intracellular cAMP levels"},
      {"measurement": "proliferation of androgen-sensitive (AS) LNCaP cells (in words)", "setting": "[1]", "result": "inhibits the proliferation"},
      {"measurement": "proliferation of androgen-insensitive (AI) LNCaP cells (in words)", "setting": "[2]", "result": "inhibits the proliferation"}
    ]}
  ]
}
